# Experimental data as given in patent publication US8431565B2 (priority 2007, dated 2013).
# Target: human CB1 receptor (hCB1) (Homo sapiens, UniProt P21554)
# Assay type: cell-based
# Sequence of human CB1 receptor (hCB1) (P21554 whole entry): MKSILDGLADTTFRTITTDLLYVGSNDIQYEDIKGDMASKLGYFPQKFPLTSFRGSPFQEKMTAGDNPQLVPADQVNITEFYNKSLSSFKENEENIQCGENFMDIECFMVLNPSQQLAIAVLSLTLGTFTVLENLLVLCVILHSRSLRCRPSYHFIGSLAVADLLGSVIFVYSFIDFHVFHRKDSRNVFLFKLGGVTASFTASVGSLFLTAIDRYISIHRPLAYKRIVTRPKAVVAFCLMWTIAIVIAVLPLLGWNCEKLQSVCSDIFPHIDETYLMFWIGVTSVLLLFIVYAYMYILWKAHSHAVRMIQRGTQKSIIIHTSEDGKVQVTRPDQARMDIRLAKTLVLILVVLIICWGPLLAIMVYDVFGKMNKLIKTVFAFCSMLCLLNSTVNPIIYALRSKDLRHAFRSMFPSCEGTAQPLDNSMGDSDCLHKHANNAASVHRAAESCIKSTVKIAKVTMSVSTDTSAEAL
row,SMILES,EC50 [µM]
1,"CNC(=O)[C@@H](NC(=O)c1nc(-c2cccnc2OC(C)C)n2c1CN(C)CCC2)C(C)(C)C [Compound 641, (S)-N-(3,3-dimethyl-1-(methylamino)-1-oxobutan-2-yl)-3-(2-isopropoxypyridin-3-yl)-8-methyl-6,7,8,9-tetrahydro-5H-imidazo[1,5-a][1,4]diazepine-1-carboxamide]",> 10
2,"CC1CN(C(=O)c2nc(-c3cc(F)c(F)cc3F)n3c2CN(C)CCC3)CC(C)O1 (stereo not drawn) [Compound 854, (2,6-dimethylmorpholino)(8-methyl-3-(2,4,5-trifluorophenyl)-6,7,8,9-tetrahydro-5H-imidazo[1,5-a][1,4]diazepin-1-yl)methanone]",> 10
3,"CNC(=O)[C@@H](NC(=O)c1nc(C2CCN(C(=O)C(C)C)CC2)n2c1CN(C)CCC2)C(C)(C)C [Compound 728, (S)-N-(3,3-dimethyl-1-(methylamino)-1-oxobutan-2-yl)-3-(1-isobutyrylpiperidin-4-yl)-8-methyl-6,7,8,9-tetrahydro-5H-imidazo[1,5-a][1,4]diazepine-1-carboxamide]",> 10
4,"CN1CCN(CC(C)(C)NC(=O)c2nc(-c3cc(Cl)c(F)cc3F)n3c2CN(C)CCC3)CC1 [Compound 879, 3-(5-chloro-2,4-difluorophenyl)-8-methyl-N-(2-methyl-1-(4-methylpiperazin-1-yl)propan-2-yl)-6,7,8,9-tetrahydro-5H-imidazo[1,5-a][1,4]diazepine-1-carboxamide]",> 10
5,"CNC(=O)C1(NC(=O)c2nc(-c3cc(Cl)c(F)cc3F)n3c2CN(C)CCC3)CC1 [Compound 905, 3-(5-chloro-2,4-difluorophenyl)-8-methyl-N-(1-(methylcarbamoyl)cyclopropyl)-6,7,8,9-tetrahydro-5H-imidazo[1,5-a][1,4]diazepine-1-carboxamide]",> 10
6,"CN1CCCn2c(-c3cc(Cl)ccc3F)nc(C(=O)N[C@H](C(=O)N[C@H]3CN4CCC3CC4)C(C)(C)C)c2C1 [Compound 744, 3-(5-chloro-2-fluorophenyl)-N-((S)-3,3-dimethyl-1-oxo-1-((R)-quinuclidin-3-ylamino)butan-2-yl)-8-methyl-6,7,8,9-tetrahydro-5H-imidazo[1,5-a][1,4]diazepine-1-carboxamide]",> 10
7,"CN1CCCn2c(-c3cc(Cl)c(F)cc3F)nc(C(=O)NC3(C(=O)N4CC(F)(F)C4)CC3)c2C1 [Compound 873, 3-(5-chloro-2,4-difluorophenyl)-N-(1-(3,3-difluoroazetidine-1-carbonyl)cyclopropyl)-8-methyl-6,7,8,9-tetrahydro-5H-imidazo[1,5-a][1,4]diazepine-1-carboxamide]",> 10
8,"CNC(=O)[C@@H](NC(=O)c1nc(-c2ccc(=O)[nH]c2)n2c1CN(C)CCC2)C(C)(C)C [Compound 645, (S)-N-(3,3-dimethyl-1-(methylamino)-1-oxobutan-2-yl)-8-methyl-3-(6-oxo-1,6-dihydropyridin-3-yl)-6,7,8,9-tetrahydro-5H-imidazo[1,5-a][1,4]diazepine-1-carboxamide]",> 10
9,"CN1CCCn2c(-c3cc(F)c(F)cc3F)nc(C(=O)N3CCC4(CCNC4=O)CC3)c2C1 [Compound 787, 8-(8-methyl-3-(2,4,5-trifluorophenyl)-6,7,8,9-tetrahydro-5H-imidazo[1,5-a][1,4]diazepine-1-carbonyl)-2,8-diazaspiro[4.5]decan-1-one]",> 10
10,"CN1CCCn2c(-c3cc(Cl)ccc3F)nc(C(=O)N[C@H](CN)C(C)(C)C)c2C1 [Compound 768, (S)-N-(1-amino-3,3-dimethylbutan-2-yl)-3-(5-chloro-2-fluorophenyl)-8-methyl-6,7,8,9-tetrahydro-5H-imidazol[1,5-a][1,4]diazepine-1-carboxamide]",> 10
11,"CN1CCCn2c(-c3cc(F)c(F)cc3F)nc(C(=O)N3CCCCC3CN3CCOCC3)c2C1 (stereo not drawn) [Compound 789, (8-methyl-3-(2,4,5-trifluorophenyl)-6,7,8,9-tetrahydro-5H-imidazo[1,5-a][1,4]diazepin-1-yl)(2-(morpholinomethyl)piperidin-1-yl)methanone]",> 10
12,"CNC(=O)[C@@H](NC(=O)c1nc(-c2cc(F)c(F)cc2F)n2c1CN(c1cncc(Cl)n1)CCC2)C(C)(C)C [Compound 718, (S)-8-(6-chloropyrazin-2-yl)-N-(3,3-dimethyl-1-(methylamino)-1-oxobutan-2-yl)-3-(2,4,5-trifluorophenyl)-6,7,8,9-tetrahydro-5H-imidazo[1,5-a][1,4]diazepine-1-carboxamide]",> 10
13,"CN1CCCn2c(-c3cc(Cl)c(F)cc3F)nc(C(=O)N3CC(F)(F)C3)c2C1 [Compound 823, (3-(5-chloro-2,4-difluorophenyl)-8-methyl-6,7,8,9-tetrahydro-5H-imidazo[1,5-a][1,4]diazepin-1-yl)(3,3-difluoroazetidin-1-yl)methanone]",> 10
14,"CNC(=O)[C@@H](NC(=O)c1nc(-c2ccc(=O)n(C)c2)n2c1CN(C)CCC2)C(C)(C)C [Compound 708, (S)-N-(3,3-dimethyl-1-(methylamino)-1-oxobutan-2-yl)-8-methyl-3-(1-methyl-6-oxo-1,6-dihydropyridin-3-yl)-6,7,8,9-tetrahydro-5H-imidazo[1,5-a][1,4]diazepine-1-carboxamide]",> 10
15,"CNC(=O)[C@@H](NC(=O)c1nc(-c2cccc3c2OC(F)(F)O3)n2c1CN(C)CCC2)C(C)(C)C [Compound 682, (S)-3-(2,2-difluorobenzo[d][1,3]dioxol-4-yl)-N-(3,3-dimethyl-1-(methylamino)-1-oxobutan-2-yl)-8-methyl-6,7,8,9-tetrahydro-5H-imidazo[1,5-a][1,4]diazepine-1-carboxamide]",> 10
16,"CNC(=O)[C@@H](NC(=O)c1nc(C2CCN(S(=O)(=O)c3ccccc3)CC2)n2c1CN(C)CCC2)C(C)(C)C [Compound 727, (S)-N-(3,3-dimethyl-1-(methylamino)-1-oxobutan-2-yl)-8-methyl-3-(1-(phenylsulfonyl)piperidin-4-yl)-6,7,8,9-tetrahydro-5H-imidazo[1,5-a][1,4]diazepine-1-carboxamide]",> 10
17,"CN1CCCn2c(-c3cc(F)c(F)cc3F)nc(C(=O)N3CC(O)C3)c2C1 [Compound 856, (3-hydroxyazetidin-1-yl)(8-methyl-3-(2,4,5-trifluorophenyl)-6,7,8,9-tetrahydro-5H-imidazo[1,5-a][1,4]diazepin-1-yl)methanone]",> 10
18,"CN1CCCn2c(-c3cc(F)c(F)cc3F)nc(C(=O)N3CCOCC3)c2C1 [Compound 859, (8-methyl-3-(2,4,5-trifluorophenyl)-6,7,8,9-tetrahydro-5H-imidazo[1,5-a][1,4]diazepin-1-yl)(morpholino)methanone]",> 10
19,"CNC(=O)[C@@H](NC(=O)c1nc(C2CCN(C(=O)c3ccccc3)CC2)n2c1CN(C)CCC2)C(C)(C)C [Compound 726, (S)-3-(1-benzoylpiperidin-4-yl)-N-(3,3-dimethyl-1-(methylamino)-1-oxobutan-2-yl)-8-methyl-6,7,8,9-tetrahydro-5H-imidazo[1,5-a][1,4]diazepine-1-carboxamide]",> 10
20,"CNC(=O)[C@@H](NC(=O)c1nc(-c2ccc(C(C)=O)s2)n2c1CN(C)CCC2)C(C)(C)C [Compound 704, (S)-3-(5-acetylthiophen-2-yl)-N-(3,3-dimethyl-1-(methylamino)-1-oxobutan-2-yl)-8-methyl-6,7,8,9-tetrahydro-5H-imidazo[1,5-a][1,4]diazepine-1-carboxamide]",> 10
21,"CN1CCCn2c(-c3cc(Cl)ccc3F)nc(C(=O)N[C@H](CN3CCCC3=O)C(C)(C)C)c2C1 [Compound 769, (S)-3-(5-chloro-2-fluorophenyl)-N-(3,3-dimethyl-1-(2-oxopyrrolidin-1-yl)butan-2-yl)-8-methyl-6,7,8,9-tetrahydro-5H-imidazo[1,5-a][1,4]diazepine-1-carboxamide]",> 10
22,"CNC(=O)[C@@H](NC(=O)c1nc(-c2cccnc2C)n2c1CN(C)CCC2)C(C)(C)C [Compound 640, (S)-N-(3,3-dimethyl-1-(methylamino)-1-oxobutan-2-yl)-8-methyl-3-(2-methylpyridin-3-yl)-6,7,8,9-tetrahydro-5H-imidazo[1,5-a][1,4]diazepine-1-carboxamide]",> 10
23,"CNC(=O)[C@@H](NC(=O)c1nc(C2CCN(S(=O)(=O)C(C)C)CC2)n2c1CN(C)CCC2)C(C)(C)C [Compound 775, (S)-N-(3,3-dimethyl-1-(methylamino)-1-oxobutan-2-yl)-3-(1-(isopropylsulfonyl)piperidin-4-yl)-8-methyl-6,7,8,9-tetrahydro-5H-imidazo[1,5-a][1,4]diazepine-1-carboxamide]",> 10
24,"CN1CCCn2c(-c3cc(Cl)ccc3F)nc(C(=O)N[C@H](C(=O)N[C@H]3CCC[C@H]3O)C(C)(C)C)c2C1 [Compound 840, 3-(5-chloro-2-fluorophenyl)-N-((S)-1-((1S,2R)-2-hydroxycyclopentylamino)-3,3-dimethyl-1-oxobutan-2-yl)-8-methyl-6,7,8,9-tetrahydro-5H-imidazo[1,5-a][1,4]diazepine-1-carboxamide]",> 10
25,"CNC(=O)[C@@H](NC(=O)c1nc(-c2cnccc2Cl)n2c1CN(C)CCC2)C(C)(C)C [Compound 627, (S)-3-(4-chloropyridin-3-yl)-N-(3,3-dimethyl-1-(methylamino)-1-oxobutan-2-yl)-8-methyl-6,7,8,9-tetrahydro-5H-imidazo[1,5-a][1,4]diazepine-1-carboxamide]",> 10
26,"CNC(=O)[C@@H](NC(=O)c1nc(-c2cnn(-c3ccccc3)c2C)n2c1CN(C)CCC2)C(C)(C)C [Compound 709, (S)-N-(3,3-dimethyl-1-(methylamino)-1-oxobutan-2-yl)-8-methyl-3-(5-methyl-1-phenyl-1H-pyrazol-4-yl)-6,7,8,9-tetrahydro-5H-imidazo[1,5-a][1,4]diazepine-1-carboxamide]",> 10
27,"CNC(=O)[C@@H](NC(=O)c1nc(-c2ccnc(-c3ccnc(Cl)c3)c2)n2c1CN(C)CCC2)C(C)(C)C [Compound 625, (S)-3-(2′-chloro-2,4′-bipyridin-4-yl)-N-(3,3-dimethyl-1-(methylamino)-1-oxobutan-2-yl)-8-methyl-6,7,8,9-tetrahydro-5H-imidazo[1,5-a][1,4]diazepine-1-carboxamide]",> 10
